Measured values as given in US7834217B2, “Method for producing oxidation product of cycloalkane” (Daicel Chemical Industries, Ltd., priority 2006, dated 2010).

Assay: Solubility in water at 25° C.
Format: physicochemical

## O=C1c2ccccc2C(=O)N1O [N-hydroxyphthalimide]
  solubility in water (25° C.): ≤ 0.01 g/100 g-H2O
